Structures can show the parent of a compound that is named as a salt.
Experiments:
eye = experiment: Example 3 ophthalmic examination, modified McDonald-Shadduck scoring (tolerability); format: in vivo, New Zealand White rabbits
Method: Prior to placement on study, each animal underwent an ophthalmic examination (slitlamp biomicroscopy and indirect ophthalmoscopy). Ocular findings were scored according to a modified McDonald-Shadduck Scoring System and recorded on a standardized data sheet. The acceptance criteria for placement on study were scores of “0” for all variables.
Ophthalmic examination (slit-lamp biomicroscopy only) was performed at baseline (prior to the start of dosing) and on Days 1, 4, and 8. Ocular findings were scored according to a modified McDonald-Shadduck Scoring System. A slit lamp was used to observe conjunctival discharge, […], […], the cornea, the surface area of cornea involvement, pannus, pupillary response, aqueous flare, cellular flare, iris involvement, and the lens. An indirect ophthalmoscope was used to observe the vitreous, vitral hemorrhage, retinal detachment, retinal hemorrhage, and choroidal/retinal inflammation. Animals were prepared for observation by using a solution (atropine, tropicaminde, or phenylephrine) to dilate the pupils.
Conjunctival discharge was defined as a whitish gray precipitate from the eye. Scoring was as follows. • 0=Normal, no discharge. • 1=Discharge above normal and present on the inner portion of the eye but not on the lids or hairs of the eyelids. • 2=Discharge is abundant, easily observed and has collected on the lids and hairs of the eyelids. • 3=Discharge has been flowing over the eyelids so as to wet the hairs substantially on the skin around the eye.
Conjunctival congestion causes the blood vessels of the eye to become enlarged. Scoring was as follows. • 0=Normal, may appear blanched to reddish pink without perilimbal injection (except at the 12:00 and 6:00 positions) with vessels of the palpebral and bulbar conjunctiva easily observed. • 1=A flushed, reddish color predominantly confined to the palpebral conjunctiva with some perilimbal injection but primarily confined to the lower and upper parts of the eye from the 4:00 to the 7:00 and 11:00 to 1:00 positions. • 2=Bright red color of the palpebral conjunctiva with accompanying perilimbal injection covering at least 75% of the circumference of the perilimbal region. • 3=Dark, beefy red color with congestion of both the bulbar and palpebral conjunctiva along with pronounced perilimbal injection and the presence of petechial on the conjunctiva. The petechial generally predominates along the nictitating membrane and upper palprebal conjunctiva.
Conjunctival swelling, defined as swelling of the conjunctiva, was scored as follows. • 0=Normal or no swelling of the conjunctival tissue. • 1=Swelling above normal without eversion of the eyelids (easily discerned by noting upper and lower eyelids are positioned as in the normal eye); swelling generally starts in the lower cul-de-sac near the inner canthus. • 2=Swelling with misalignment of the normal approximation of the lower and upper eyelids; primarily confined to the upper eyelid so that in the initial stages, the misapproximation of the eyelids begins by partial eversion of the upper eyelid. In this state the swelling is confined generally to the upper eyelid with some swelling in the lower cul-de-sac. • 3=Swelling definite with partial eversion of the upper and lower eyelids essentially equivalent. […] It is difficult to retract the lids and observe the perilimbal region.
Iris involvement was observed by checking the iris for hyperemia of the blood vessels. Scoring was as follows. • 0=Normal iris without any hyperemia of the blood vessels. • 1=Some loss of transparency. Only the epithelium and/or the anterior half of the stroma are involved. The underlying structures are clearly visible although some cloudiness may be readily apparent. • 2=Involvement of the entire thickness of the stroma. […]

[1] = Example 3 general health observations; format: in vivo, New Zealand White rabbits; settings: Example 3, 7 days topical or subcutaneous dosing
Method: Animals were observed within their cages once daily throughout the study period. […] General health observations were recorded daily beginning on Day 1 and continuing throughout the course of the study.

[2] = In vitro diffusion across rabbit cornea and sclera in Franz cell; format: in vitro ADME; settings: 1.5% of the sodium salt with 5% HPβCD in 50:50 D5W:sterile water
[3] = test system: intraocular pressure in patients with diabetic macular edema; experiment: Change in intraocular pressure from baseline, Compound 1 BID for 28 days (FIG. 1); format: in vivo, human; settings: doses greater than 15 mg BID, 28 Day EOT
Method: The difference in IOP was determined at the end of the trial, which was 28 days after treatment began (28 Day EOT). Changes in IOP were determined both in the study eye and the fellow eye.

[4] = Day 1, Group 2 (0.45 mg/eye topical BID), N=5

Structure (SMILES)	animals with mild conjunctival congestion (scores=1) (eye; [4])	animals with mild conjunctival swelling (eye; [4])	animals with mild conjunctival congestion (scores=1) (eye; Day 1, Group 3 (1.2 mg/eye topical BID), N=5)	animals with mild conjunctival congestion (scores=1) (eye; Day 1, Group 4 (1.2 mg/eye topical QD), N=5)	animals with mild conjunctival congestion (scores=1) (eye; Day 1, Group 5 (10 mg/kg SC BID), N=5)	animals with mild conjunctival congestion (scores=1) (eye; Day 4, Group 2 (0.45 mg/eye topical BID), N=5)	animals with mild conjunctival congestion (scores=1) (eye; Day 4, Group 3 (1.2 mg/eye topical BID), N=5)	animals with mild conjunctival congestion (scores=1) (eye; Day 4, Group 4 (1.2 mg/eye topical QD), N=5)	animals with mild conjunctival congestion (scores=1) (eye; Day 4, Group 5 (10 mg/kg SC BID), N=5)	ocular anomalies (eye; Day 8, all groups)	relation of mild conjunctival congestion to test article (eye; Example 3)	adverse effects on general health [1]	diffusion across rabbit cornea and sclera in Franz cell [2]	change in IOP relative to pre-treatment baseline [3]
COC(=O)N[C@@H](Cc1ccccc1)C(=O)N[C@@H](Cc1ccc(NS(=O)(=O)O)cc1)c1csc(-c2cccs2)n1 [Compound 1 sodium salt]	five	one	two	one	three	two	two	one	none	No ocular anomalies	unrelated to the test article	No adverse effects	–	–
COC(=O)N[C@@H](Cc1ccccc1)C(=O)N[C@@H](Cc1ccc(NS(=O)(=O)O)cc1)c1csc(-c2cccs2)n1 [Compound 1]	–	–	–	–	–	–	–	–	–	–	–	–	substantial diffusion	decreased IOP

Source: patent US10952992B2, “Methods of treating intraocular pressure with activators of Tie-2” (Aerpio Pharmaceuticals, Inc., priority 2015, dated 2021)
